Source: PubChem BioAssay (NCI)
Where “and” joins values, the source holds several entries; their conditions need not be identical. Equal entries are not always repeated.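 Results reflect a 48-hour exposure of cells in 96-well plates to compound at five concentrations. Abbreviation: GI50, concentration required for 50% inhibition of growth. The concentration for full growth arrest is given as TGI.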

Assays:
Assay in all cases: NCI tumour cell line growth inhibition, 48 h
[1] = test system: MDA-MB-435
[2] = test system: IGROV1 ovarian
[3] = test system: ACHN renal
[4] = test system: SK-MEL-5 melanoma
[5] = test system: MOLT-4 leukemia
[6] = test system: UO-31 renal
[7] = test system: HCT-15 colon
[8] = test system: HOP-62 NSCLC

C=C(C)C1CC2(C)C(C)CC(OC(=O)/C(C)=C\C)CC2C(OC(=O)/C(C)=C\C)C1O (stereo not drawn)
TGI [1]: > 100 µM
TGI [2]: > 100 µM
TGI [3]: > 100 µM
TGI [4]: 43.7 µM
TGI [5]: 60.3 µM
TGI [6]: > 100 µM
TGI [7]: > 100 µM

CCOC(=O)C1=C(C)NC2SC(=O)/C(=C\c3ccccc3O)N2C1c1ccccc1 (stereo not drawn)
GI50 [1]: 19.6 µM
TGI [1]: 62.5 µM
GI50 [2]: 25 µM
TGI [2]: 64.1 µM
GI50 [3]: 28.5 µM
TGI [3]: 81.4 µM
GI50 [8]: 31.4 µM
TGI [8]: > 100 µM
GI50 [4]: 17.2 µM
TGI [4]: 32.5 µM
GI50 [6]: 21.9 µM
TGI [6]: 66.8 µM
GI50 [7]: 30.5 µM
TGI [7]: > 100 µM

COc1cccc2c1-c1c(c3ccc([N+](=O)[O-])cc3c(=O)n1CCCCl)C2=O
GI50 [1]: > 50 µM
TGI [1]: > 50 µM
GI50 [8]: 5.46 µM
TGI [8]: 15.9 µM
GI50 [4]: 0.791 µM
TGI [4]: > 50 µM
GI50 [5]: 2.23 µM
TGI [5]: > 50 µM
GI50 [6]: 1.73 µM
TGI [6]: > 50 µM

CC(=O)O[C@H](C[C@H](C(C)C)N(C)C(=O)[C@@H](NC(=O)[C@H]1CCCCN1C)C(C)C)c1nc(C(=O)N[C@@H](Cc2ccccc2)C[C@H](C)C(=O)O)c(C(C)C)s1
GI50 [2]: < 0.00333 µM
TGI [2]: > 33.3 µM
GI50 [3]: 0.00458 µM
TGI [3]: > 18.5 µM
GI50 [8]: < 0.00333 µM
TGI [8]: > 33.3 µM
GI50 [4]: < 0.00333 µM
TGI [4]: 0.00641 µM
GI50 [5]: < 0.00333 µM
TGI [5]: > 33.3 µM
GI50 [6]: 0.0161 µM
TGI [6]: > 33.3 µM
GI50 [7]: 0.0101 µM
TGI [7]: > 33.3 µM

CCOc1cc2c(cc1O)/C(=N\O)C[C@@H]1[C@@H]2CC[C@]2(C)[C@@H](O)CC[C@@H]12
GI50 [2]: 0.296 µM
TGI [2]: > 100 µM
GI50 [3]: 0.024 µM
TGI [3]: > 49.5 µM
TGI [8]: > 100 µM
GI50 [4]: 0.00618 µM
TGI [4]: 1.32 µM and 10.2 µM
TGI [5]: 0.977 µM
GI50 [6]: 0.984 µM
TGI [6]: 46.1 µM
TGI [7]: > 36.8 µM

COc1ccc(C2=NN(C(=O)c3cc(OC)c(OC)c(OC)c3)C(c3ccc(Cl)cc3)C2)cc1OC (stereo not drawn)
GI50 [2]: 2.11 µM
TGI [2]: 40 µM
GI50 [3]: 2.32 µM
TGI [3]: 41.3 µM
GI50 [8]: 5.24 µM
TGI [8]: 32 µM
GI50 [4]: 0.549 µM
TGI [4]: 15.6 µM
GI50 [5]: 2.73 µM
TGI [5]: > 100 µM
GI50 [6]: 1.11 µM
TGI [6]: 41.8 µM
GI50 [7]: 1.79 µM
TGI [7]: > 100 µM

Cc1cc(=O)[nH]o1
TGI [1]: > 100 µM
TGI [2]: > 100 µM
TGI [3]: > 100 µM
TGI [8]: > 100 µM
TGI [6]: > 100 µM
TGI [7]: > 100 µM

Cc1ccc(Nc2n[nH]c(=S)s2)cc1
TGI [1]: > 100 µM
TGI [3]: > 100 µM
TGI [8]: > 100 µM
TGI [4]: > 100 µM
TGI [5]: > 100 µM
TGI [6]: > 100 µM
TGI [7]: > 100 µM

C/C(=N\N=C(\[Se])N1CCN(c2ccccn2)CC1)c1ccccn1
GI50 [1]: 0.0967 µM
TGI [1]: 20.3 µM
GI50 [3]: 0.00847 µM
TGI [3]: 16.9 µM
GI50 [4]: 0.0401 µM
TGI [4]: 3.95 µM
GI50 [5]: 0.00298 µM
GI50 [6]: 0.138 µM
TGI [6]: > 40 µM
GI50 [7]: 0.0118 µM
TGI [7]: 17.3 µM

CC(=O)c1c(C)n(C)c2c1nnc1ccccc12
TGI [1]: > 100 µM
TGI [3]: > 100 µM
TGI [8]: > 100 µM
TGI [4]: > 100 µM
TGI [6]: 8.11 µM
TGI [7]: > 100 µM

C/C1=C/C2=CC(C)C[C@@H]2C(=O)[C@]2(C)C(=O)CC(C)(C)[C@H]2CC1=O (stereo partly drawn)
TGI [1]: > 50 µM
TGI [2]: > 50 µM
TGI [3]: > 50 µM
TGI [4]: > 50 µM
TGI [5]: > 50 µM
TGI [6]: > 50 µM
TGI [7]: > 50 µM

CCOC(=O)c1c2c(n(Cc3ccccc3)c1C)-c1ccccc1C(=O)C2=O
GI50 [1]: 29 µM
TGI [1]: 87 µM
GI50 [2]: 4.35 µM
TGI [2]: 20.1 µM
GI50 [3]: 12.9 µM
TGI [3]: 30.2 µM
GI50 [8]: 13.7 µM
TGI [8]: 27.1 µM
GI50 [4]: 18 µM
TGI [4]: 41.2 µM
GI50 [6]: 16.3 µM
TGI [6]: 31.6 µM
GI50 [7]: 15.3 µM
TGI [7]: 30.8 µM

CO/N=C(\C)c1cccc(Nc2cc(-c3ccccc3)nc3c(O)cccc23)c1
GI50 [1]: 1.97 µM
TGI [1]: 5.56 µM
GI50 [2]: 2.46 µM
TGI [2]: 8.29 µM
GI50 [3]: 6.04 µM
TGI [3]: 28.1 µM
GI50 [8]: 3.47 µM
TGI [8]: 8.39 µM
GI50 [4]: 16.6 µM
TGI [4]: 39.2 µM
GI50 [6]: 4.58 µM
TGI [6]: 60.5 µM
GI50 [7]: 3.38 µM
TGI [7]: 16.9 µM

CC(C)(C)c1[nH]cnc1/C=c1\[nH]c(=O)/c(=C/c2ccccc2)[nH]c1=O
GI50 [2]: 0.0134 µM
TGI [2]: 24.2 µM
GI50 [3]: < 0.01 µM
TGI [3]: 35.7 µM
GI50 [8]: < 0.01 µM
TGI [8]: 25.8 µM
GI50 [4]: < 0.0133 µM
TGI [4]: 0.137 µM
GI50 [5]: 0.0215 µM
TGI [5]: 19.7 µM
GI50 [6]: < 0.0144 µM
TGI [6]: 27.6 µM
GI50 [7]: < 0.01 µM
TGI [7]: 13.5 µM

CC1CCN(CCCCCOc2ccc3oc4cc(Cl)ccc4c(=O)c3c2)CC1
GI50 [1]: 1.55 µM
TGI [1]: 5.23 µM
GI50 [2]: 6.71 µM
TGI [2]: 15.3 µM
GI50 [3]: 8.01 µM
TGI [3]: 14.7 µM
GI50 [4]: 5.36 µM
TGI [4]: 11.3 µM
GI50 [5]: 2.87 µM
TGI [5]: 10.3 µM
GI50 [6]: 5.7 µM
TGI [6]: 11.8 µM
GI50 [7]: 1.32 µM
TGI [7]: 4.1 µM
